Test results as given in US20240180895A1, “USE OF KAPPA OPIOID RECEPTOR AGONISTS TO TREAT CARDIOVASCULAR DISEASE” (Board of Supervisors of Louisiana State University and …, priority 2021, published 2024).

Experiments:
[1] = system: conscious Sprague-Dawley rats; test: Acute cardiovascular and renal excretory studies, i.v. bolus (Example 3); type: in vivo, rat
Method: Animals: Male Sprague-Dawley (SD) rats (Envigo Labs, Indianapolis, IN), 300-350 g, were individually housed under a 12 h light-dark cycle and allowed tap water and standard rodent diet ad libitum. Rats were randomly assigned to experimental groups for all acute and subacute studies. All procedures were approved by the Louisiana State University Health Sciences Center Institutional Animal Care and Use Committee and conducted in accordance with the National Institutes of Health guidelines for the care and use of animals.
Surgical Procedures: Aseptic technique was followed for all surgical procedures. On the morning of the experiment, rats were anesthetized with and maintained under inhaled 2% isoflurane, and polyethylene catheters (PE50; BD Diagnostics, Sparks, MD) were surgically inserted into the left femoral vein and left femoral artery for the infusion of saline and/or drug administration and the recording of arterial blood pressure, respectively. Subsequently, a suprapubic incision was made and a flanged polyethylene catheter (PE240; BD Diagnostics, Sparks, MD) was inserted into the bladder, exteriorized, and sutured to surrounding muscle and skin. Rats were then placed in an elevated restrainer (Krowicki & Kapusta, 2011) to recover from surgery and allow collection of urine. When acute experimental protocols were completed, rats were anesthetized via isoflurane and decapitated.
Acute Cardiovascular and Renal Excretory Studies: Following surgery, rats received an i.v. infusion of isotonic saline at 55 μL min^−1 throughout the duration of the experiment and were allowed 4-6 hours to recover from anesthesia. Arterial catheters were connected to a pressure transducer (MLT0670, ADInstruments, Sydney, Australia), which was connected to Powerlab 8/30 (ADInstruments) for recording of pulsatile and mean arterial blood pressure (MAP) and heart rate (HR). Blood pressure and HR were visualized using LabChart software (v8.1.5; ADInstruments). […] Following this control period, drug or vehicle (isotonic saline) was injected into the femoral vein catheter at a volume of 2 cc kg^−1, and urines were collected in 10 minute periods for a span of 90 minutes. […] All groups are n=6. Urine volume was measured gravimetrically, urine sodium and potassium concentrations were measured using flame photometry (model 943; Instrumentation Laboratories, Lexington, MA), and urine osmolality was measured using a vapor pressure osmometer (model 5600; WESCOR, Logan, UT).
Experimental Design and Analysis: All results are expressed as mean±SEM. […] Means between groups for total urine output, Na^+ concentration, K^+ concentration, and urine osmolality were compared using a Student's t-test. Statistical significance was characterized as P<0.05. Statistics were carried out using Prism 7.05 software (GraphPad Software, Inc., San Diego, CA) and IBM SPSS Statistics (IBM, Armonk, NY).

Sprague-Dawley rats [2] = test: Prevention of diuretic resistance to twice daily furosemide by nalfurafine, 5-hour urine (FIG. 15); type: in vivo, rat; settings: nalfurafine 10 μg/kg IP added to furosemide 20 mg/kg twice daily
Method: (§1) Male Sprague-Dawley rats were placed in individual metabolic cages in a room with 12-hour automatic light on/off control and allowed tap water and rodent chow ad libitum. Over the next two (2) days (control period), rats were administered vehicle (5% NaOH; 1 M PBS, IP) in the morning (9:00 am) and afternoon (2:00 pm) of each day, with urine collected for 5-hours starting immediately after the first injection. […] This was repeated for 4 consecutive days (experimental period).

Sprague-Dawley rats [3] = test: Reversal of oral furosemide diuretic resistance by oral nalfurafine (FIG. 17); type: in vivo, rat; settings: nalfurafine 150 μg/kg oral added from day 7
Method: as §1, with “PBS) orally (gavage)” for “PBS, IP)”, “and” for “of each day, with”, “urine was” for “urine”, “5-hours” for “5-hours starting immediately”, “oral treatment.” for “injection.”, “8” for “4”

[4] = system: spontaneously hypertensive rats; test: Chronic oral nalfurafine, radiotelemetry blood pressure (FIG. 18); type: in vivo, rat; settings: nalfurafine 0.5 mg/kg oral once per day for 5 weeks
Method: Male spontaneously hypertensive rats (SHR; Charles Rivers) were single housed and allowed tap water and standard rodent diet ad libitum. All procedures and experiments were conducted in accordance with the National Institutes of Health guidelines for the care and use of animals.
Radiotelemetry transmitters (Data Sciences International, St. Paul, MN) were implanted into SHR for chronic recording of blood pressure and heart rate and followed as previously published.^56 Briefly, rats were anesthetized and maintained on 2% isoflurane and the right femoral artery was surgically exposed. The transmitter catheter was inserted into the femoral artery and advanced until reaching the abdominal aorta. The site exposing the femoral artery was sutured and rats were allowed 1 week of recovery. Telemetry data was analyzed using Ponemah software (DSI, St. Paul, MN).
Spontaneously hypertensive rats were orally administered (gavage) nalfurafine (0.5 mg/kg) or vehicle (water) once per day for 5 weeks following recovery from radiotelemetry transmitter insertion. Blood pressure was recorded once per week and the 12:00-14:00 time frame was plotted.
All results are expressed as mean±SEM. Statistically different changes for both experimental protocols were determined using 2-way ANOVA with repeated measures and were considered statistically different following a significant/value for an interaction between experimental group and time. Statistical significance was determined as P<0.05, and statistics were performed on Prism 7.05 software (GraphPad Software, Inc, San Diego, CA).

[5] = in rats; cited from earlier work
[6] = i.v. bolus, cumulative 90-min urine, same doses, mean±SEM

CN(C(=O)/C=C/c1ccoc1)[C@@H]1CC[C@@]2(O)[C@H]3Cc4ccc(O)c5c4[C@@]2(CCN3CC2CC2)[C@H]1O5 [nalfurafine, Nalfurafine]
Duration of the increase in urine flow rate above control ([1]; after i.v. bolus): 50 min | Time of peak diuresis (urine flow rate) ([1]; after i.v. bolus): 30 min | Time of peak antikaliuresis ([1]; after i.v. bolus 5 μg kg−1): 50 min | Time of peak antinatriuresis ([1]; after i.v. bolus 5 μg kg−1): 40 min | Effect on heart rate (HR) ([1]; i.v. bolus, 90-min protocol): did not change HR | Potassium concentration [K+] in cumulative urine [1, 6]: 4.51±0.68 μeq ml^−1 | Sodium concentration [Na+] in cumulative urine [1, 6]: 43.59±5.71 μeq ml^−1 | Urine osmolality [1, 6]: 158.7 ± 16.78 mmol/kg | Mean arterial pressure (MAP), peak Δ ([1]; i.v. bolus, peak change vs group control value, time of peak 40 to 90 min as printed): −11 mmHg | Decrease in MAP ([1]; i.v. nalfurafine, as summarised in the discussion): ~10 mmHg | Effect on diuretic resistance to furosemide (Sprague-Dawley rats [2]): prevents the diuretic resistance | Effect on established diuretic resistance to furosemide (Sprague-Dawley rats [3]): able to treat or rescue the diuretic resistance | Diastolic blood pressure and heart rate vs vehicle [4]: no significant interaction between treatment over time for diastolic blood pressure or heart rate | Mean arterial pressure vs vehicle ([4]; 12:00-14:00 time frame): significantly lower mean arterial pressure at the 3-week time point | Systolic blood pressure vs vehicle ([4]; 12:00-14:00 time frame): significantly lower in the nalfurafine group compared to vehicle at 3, 4, and 5 weeks | Half-life [5]: ~6 h
